The record followed here is patent US12649733B2, “3,6-diamino-pyridazin-3-yl derivatives, pharmaceutical compositions containing them and their uses as pro-apoptotic agents” (LES LABORATOIRES SERVIER, priority 2019, dated 2026).

Molecules are shown by their SMILES. Bounds are passed on as bounds.

The target of test [1] is T1, BCLXL (Homo sapiens, UniProt Q07817, V10N/V9A). Put plainly: AlphaLISA assay (BIM peptide displacement). Type of test: binding. Particulars: 20 pM protein, 1 nM peptide. On the procedure: AlphaLISA assay measures an increase in alpha signal upon binding biotinylated GST(1-218)-(FACTOR_XA)-hs ? (2-209)(SEQ ID:02—GST UniProtKB® primary accession number P08515 and BCLXL UniProtKB® primary accession number Q07817-1) coupled to a Streptavidin labeled Alpha donor bead to N-terminally labeled peptide derived from BIM (Fluorescein-betaAla-Ahx-SEQID:05, wherein SEQ ID:05 is […]) coupled to an Anti-FTIC AlphaLISA acceptor bead.
GST(1-218)(FACTOR_XA)-hs ? (2-209) was biotinylated in 50 mM phosphate buffer using a 20 fold excess of EZ Link NHS-LC-Biotin (thermoFisher catalogue number 21336) overnight at 4° C.
The addition of a compound which binds competitively to the same site as the peptide will result in an decrease in the Alpha signal of the available donor bead-protein-peptide-acceptor bead complex due to displacement of the peptide.
An 11-point serial dilution of each compound was prepared in DMSO, the final buffer conditions were 10 mM 4-(2-hydroxyethyl)-1-piperazineethanesulfonic acid [HEPES], 150 mM NaCl, 0.05% Tween 20, pH 7.4 and 4% DMSO. The final protein concentration in the assay was 20 pM with the peptide present at 1 nM). Alpha beads were used at a final concentration of 5 ug/mL. The experiments were incubated for overnight at 23° C. after acceptor bead addition. Finally the donor bead is added and incubated for 2 hours at 23° C. before Alpha signal measured on a Biotek Synergy2 plate reader (Excitation 680 nm, emission 615 nm).
(In general: In Alpha technology, singlet oxygen from a donor bead excites a nearby acceptor bead.)

In test [2] the test system is H146 cells. Kind of test: H146 cell viability, MTT assay. To be noted: Homo sapiens, NCI-H146, 48 h, 48 h exposure. Type of test: cell-based. The gist of the method: (§1)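 Viability read by MTT reduction (OD 540 nm after overnight SDS/HCl lysis) after 48 h compound treatment of cells in RPMI 1640/10% FBS. Triplicates at nine concentrations, 3.16-fold apart; four-parameter curve fitting yields IC50.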
On the technique in general: Tetrazolium dyes change colour on reduction, which living cells bring about.

Test [3] deals with MOLT-4 cells. Kind of test: MOLT-4 cell viability, MTT assay. Particulars: Homo sapiens, MOLT-4, 48 h, 48 h exposure. The class given is cell-based. In short, it runs like this: as §1
In test [4] the target is T1, BCLXL. Put plainly: Fluorescence polarisation assay (PUMA-based probe displacement). Also: 20 nM protein, 10 nM fluorescent probe. Type of test: binding. In general terms: Polarisation of emitted light reports the rotation of a fluorescent probe.

T1 sequence (Q07817 with tags, fused parts or gaps V9A/V10N): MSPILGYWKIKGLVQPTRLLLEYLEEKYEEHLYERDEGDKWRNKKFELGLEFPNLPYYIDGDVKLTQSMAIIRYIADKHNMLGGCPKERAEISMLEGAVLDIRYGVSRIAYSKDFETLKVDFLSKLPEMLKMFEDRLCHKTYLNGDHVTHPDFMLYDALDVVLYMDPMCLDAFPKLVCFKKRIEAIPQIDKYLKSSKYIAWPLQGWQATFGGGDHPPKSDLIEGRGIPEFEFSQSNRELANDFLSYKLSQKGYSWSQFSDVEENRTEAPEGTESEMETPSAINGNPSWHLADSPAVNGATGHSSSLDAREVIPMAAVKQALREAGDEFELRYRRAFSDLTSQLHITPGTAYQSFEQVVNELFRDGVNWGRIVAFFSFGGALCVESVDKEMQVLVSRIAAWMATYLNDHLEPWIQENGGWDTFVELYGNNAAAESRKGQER

With `Cc1c(Nc2nc(C(=O)O)c(CCCOc3ccc(C#CCN(C)C)cc3F)s2)nnc(Nc2nc3ccccc3s2)c1C` [Example 3, 2-({6-[(1,3-Benzothiazol-2-yl)amino]-4,5-dimethylpyridazin-3-yl}amine)-5-(3-{4-[3-(dimethylamino)prop-1-yn-1-yl]-2-fluorophenoxy}propyl)-1,3-thiazole-4-carboxylic acid], the results for the IC50 in test [1], in test [2] and in test [3] were 0.096 nM, 42 nM and 90 nM, respectively. The Ki – broadly, the equilibrium dissociation constant of an inhibitor or competing ligand from its target – in test [4] is 1.9 nM.

Take `COCCCN(c1cc(C)c(Nc2nc3ccccc3s2)nn1)c1nc(C(=O)O)c(CCCOc2ccc(C#CCN(C)C)cc2F)s1` [Example 54, 2-({6-[(1,3-Benzothiazol-2-yl)amino]-5-methylpyridazin-3-yl}(3-methoxypropyl)amino)-5-(3-{4-[3-(dimethylamino)prop-1-yn-1-yl]-2-fluorophenoxy}propyl)-1,3-thiazole-4-carboxylic acid]: the IC50 – broadly, the concentration at which inhibition is half-maximal – in test [1] was 0.025 nM; in test [2] it was 35.2 nM; in test [3], 5.07 nM. For the same molecule, the Ki in test [4] was 1.4 nM.

In the case of `Cc1cc(N(C)c2nc(C(=O)O)c(CCCOc3ccccc3F)s2)nnc1Nc1nc2ccccc2s1` [Example 59, 2-({6-[(1,3-Benzothiazol-2-yl)amino]-5-methylpyridazin-3-yl}(methyl)amino)-5-[3-(2-fluorophenoxy)propyl]-1,3-thiazole-4-carboxylic acid], the values for the IC50 in test [1], in test [2] and in test [3] were 0.14 nM, 271 nM and 76.1 nM, respectively. In test [4], the Ki was < 1 nM.

On to `COCCCc1sc(N(C)c2cc(C)c(Nc3nc4ccccc4s3)nn2)nc1C(=O)O` [Example 60, 2-({6-[(1,3-Benzothiazol-2-yl)amino]-5-methylpyridazin-3-yl}(methyl)amino)-5-(3-methoxypropyl)-1,3-thiazole-4-carboxylic acid], for which the half-maximal inhibitory concentration (IC50) in test [1] was 0.96 nM; in test [2], 5800 nM; in test [3] it was 2740 nM. For the same molecule, in test [4], the Ki stood at 1.5 nM.

`Cc1cc(N(C)c2nc(C(=O)O)c(CCCOc3ccccc3)s2)nnc1Nc1nc2ccccc2s1` [Example 63, 2-({6-[(1,3-Benzothiazol-2-yl)amino]-5-methylpyridazin-3-yl}(methyl)amino)-5-(3-phenoxypropyl)-1,3-thiazole-4-carboxylic acid]: the results for the IC50 in test [1], in test [2] and in test [3] were 0.1 nM, 205 nM and 85.3 nM, respectively. In test [4], the Ki was < 1 nM.

For the molecule `COCCCN(c1cc(C)c(Nc2nc3ccccc3s2)nn1)c1nc(C(=O)O)c(CCCOc2ccccc2)s1` [Example 65, 2-{[6-[(1,3-Benzothiazol-2-yl)amino]-5-methylpyridazin-3-yl}(3-methoxypropyl)amino)-5-(3-phenoxypropyl)-1,3-thiazole-4-carboxylic acid], the IC50 turned out to be 1 nM in test [1], 865 nM in test [2] and 236 nM in test [3]. Moreover, the Ki in test [4] is < 1 nM.

With `Cc1cc(N(CCC(O)CO)c2nc(C(=O)O)cs2)nnc1Nc1nc2ccccc2s1` (centres unmarked) [Example 85, 2-[[6-(1,3-Benzothiazol-2-ylamino)-5-methyl-pyridazin-3-yl]-(3,4-dihydroxybutyl)amino]thiazole-4-carboxylic acid], the 50% inhibitory concentration (IC50) in test [1] was 12 nM; in test [2], > 15000 nM; in test [3], > 15000 nM. Moreover, in test [4], the inhibition constant (Ki) was < 1 nM.

In the case of `Cc1cc(N(C)c2nc(C(=O)O)c(C3CCN(C(=O)c4ccccc4)CC3)s2)nnc1Nc1nc2ccccc2s1` [Example 89, 5-(1-Benzoylpiperidin-4-yl)-2-({6-[(1,3-benzothiazol-2-yl)amino]-5-methylpyridazin-3-yl}(methyl)amino)-1,3-thiazole-4-carboxylic acid], the IC50 in test [1] was 150 nM; in test [2] it was > 15000 nM; in test [3] it was 13100 nM. The inhibition constant Ki in test [4] was 160 nM.

In the case of `Cc1cc(N(C)c2ccc(-c3cnn(CC45CC6CC(CC(C6)C4)C5)c3C)c(C(=O)O)n2)nnc1Nc1nc2ccccc2s1` [Example 90, 3-{1-[(Adamantan-1-yl)methyl]-5-methyl-1H-pyrazol-4-yl}-6-({6-[(1,3-benzothiazol-2-yl)amino]-5-methylpyridazin-3-yl}(methyl)amino)pyridine-2-carboxylic acid], the figures for the half-maximal inhibitory concentration (IC50) in test [1], in test [2] and in test [3] were 0.023 nM, 201 nM and 23.3 nM, respectively. The inhibition constant Ki in test [4] was < 1 nM.

Turning to `Cc1cc(N(C)c2nc(C(=O)O)c(C3CCN(c4ccccc4)CC3)s2)nnc1Nc1nc2ccccc2s1` [Example 91, 2-({6-[(1,3-Benzothiazol-2-yl)amino]-5-methylpyridazin-3-yl}(methyl)amino)-5-(1-phenylpiperidin-4-yl)-1,3-thiazole-4-carboxylic acid], the results for the IC50 in test [1], in test [2] and in test [3] were 5.3 nM, 5390 nM and 1130 nM, respectively. Also, the Ki in test [4] was 6.4 nM.

Consider `Cc1cc(N(C)c2nc(C(=O)O)c(C3CCN(S(=O)(=O)c4ccccc4)CC3)s2)nnc1Nc1nc2ccccc2s1` [Example 92, 5-[1-(Benzenesulfonyl)piperidin-4-yl]-2-({6-[(1,3-benzothiazol-2-yl)amino]-5-methylpyridazin-3-yl}(methyl)amino)-1,3-thiazole-4-carboxylic acid], for which the IC50 is 46 nM in test [1], > 15000 nM in test [2] and > 15000 nM in test [3]. For the same molecule, the Ki in test [4] turned out to be 68 nM.

As for `COCC(O)CCN(c1cc(C)c(Nc2nc3ccccc3s2)nn1)c1nc(C(=O)O)cs1` (centres unmarked) [Example 93, 2-[[6-(1,3-Benzothiazol-2-ylamino)-5-methyl-pyridazin-3-yl]-(3-hydroxy-4-methoxy-butyl)amino]thiazole-4-carboxylic acid], the values for the IC50 in test [1], in test [2] and in test [3] were 6.4 nM, > 15000 nM and 9400 nM, respectively. Besides, the Ki in test [4] was 6.8 nM.

For the molecule `Cc1cc(N(C)c2nc(C(=O)O)c(C3CCN(S(C)(=O)=O)CC3)s2)nnc1Nc1nc2ccccc2s1` [Example 94, 2-({6-[(1,3-Benzothiazol-2-yl)amino]-5-methylpyridazin-3-yl}(methyl)amino)-5-(1-methanesulfonylpiperidin-4-yl)-1,3-thiazole-4-carboxylic acid], the half-inhibitory concentration (IC50) is 51 nM in test [1], 4070 nM in test [2] and ≥ 10000 nM in test [3]. Moreover, in test [4], the inhibition constant Ki was 67 nM.

For the molecule `Cc1cc(N(C)c2nc(C(=O)O)c(C3CCN(S(=O)(=O)Cc4ccccc4)CC3)s2)nnc1Nc1nc2ccccc2s1` [Example 95, 2-({6-[(1,3-Benzothiazol-2-yl)amino]-5-methylpyridazin-3-yl}(methyl)amino)-5-(1-phenylmethanesulfonylpiperidin-4-yl)-1,3-thiazole-4-carboxylic acid], the figures for the IC50 in test [1], in test [2] and in test [3] were 22 nM, 9270 nM and 5010 nM, respectively. In test [4], the Ki came out at 24 nM.

Take `COC(CO)CCN(c1cc(C)c(Nc2nc3ccccc3s2)nn1)c1nc(C(=O)O)cs1` (centres unmarked) [Example 98, 2-[[6-(1,3-Benzothiazol-2-ylamino)-5-methyl-pyridazin-3-yl]-(4-hydroxy-3-methoxy-butyl)amino]thiazole-4-carboxylic acid]: the IC50 is 1.8 nM in test [1], > 15000 nM in test [2] and > 15000 nM in test [3]. In addition, in test [4], the Ki is 2.3 nM.

Take `Cc1cc(N(C)c2nc(C(=O)O)c(CCCOc3ccc(C#CC[N+](C)(C)CCCS(=O)(=O)[O-])cc3F)s2)nnc1Nc1nc2ccccc2s1` [Example 101, 3-[3-[4-[3-[2-[[6-(1,3-Benzothiazol-2-ylamino)-5-methyl-pyridazin-3-yl]-methyl-amino]-4-carboxy-thiazol-5-yl]propoxy]-3-fluoro-phenyl]prop-2-ynyl-dimethyl-ammonio]propane-1-sulfonate]: the IC50 in test [1] came out at 0.0022 nM; in test [2], 1190 nM; in test [3], 483 nM. The inhibition constant Ki in test [4] was < 1 nM.

Take `CNCC#Cc1ccc(OCCCc2sc(N(CCC(O)CO)c3cc(C)c(Nc4nc5ccccc5s4)nn3)nc2C(=O)O)c(F)c1` (centres unmarked) [Example 108, 2-[[6-(1,3-Benzothiazol-2-ylamino)-5-methyl-pyridazin-3-yl]-(3,4-dihydroxybutyl)amino]-5-[3-[2-fluoro-4-[3-(methylamino)prop-1-ynyl]phenoxy]propyl]thiazole-4-carboxylic acid]: the IC50 in test [1] is 0.0066 nM; in test [2], 22.3 nM; in test [3] it was 46.7 nM. In addition, in test [4], the Ki is < 1 nM.
